Strand notation (5' to 3'): a small letter for the sugar, then the base; units joined by * are phosphorothioate-linked, units joined directly phosphodiester-linked; [ ] holds rarer units or linkages, { } end groups; capitals alone tell only the bases. e = 2'-O-(2-methoxyethyl) (MOE); [5mC] = 5-methylcytosine; d = 2'-deoxy (DNA)

The first data set relates to human LIM domain kinase 1 mRNA. Description: Antisense inhibition of human LIM domain kinase 1 mRNA levels, quantitative real-time PCR, A549 cells (screen). As to conditions: real-time PCR, bound stated. The format is cell-based. In a few lines: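 A549 cells at 70% confluency treated with antisense oligonucleotides (all cytidines 5-methylcytidine), harvested 16-24 h later. LIMK1 mRNA measured by real-time RT-PCR with FAM/TAMRA probe, normalized to total RNA by RiboGreen; values are averages of two experiments.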
On the technique in general: Real-time PCR tracks product formation cycle by cycle.
For “ccggccagggcaccgcagct (e[5mC]*e[5mC]*eG*eG*e[5mC]*d[5mC]*dA*dG*dG*dG*d[5mC]*dA*d[5mC]*d[5mC]*dG*e[5mC]*eA*eG*e[5mC]*eT; antisense) [ISIS 206214]”, the “inhibition of human LIM domain kinase 1 expression (text summary of Table 1)” value (“inhibition” below) was “at least 65%”.

Regarding “actccccatttggttcctgg (eA*e[5mC]*eT*e[5mC]*e[5mC]*d[5mC]*d[5mC]*dA*dT*dT*dT*dG*dG*dT*dT*e[5mC]*e[5mC]*eT*eG*eG; antisense) [ISIS 206212]”, the “inhibition” value is given as “at least 65%”.

Take “tgcactgagaaagcttcaca (eT*eG*e[5mC]*eA*e[5mC]*dT*dG*dA*dG*dA*dA*dA*dG*d[5mC]*dT*eT*e[5mC]*eA*e[5mC]*eA; antisense) [ISIS 206219]”: the “inhibition” value is given as “at least 65%”.

The subject of another data set is LIM domain kinase 1 mRNA. Kind of data set: Antisense inhibition of LIM domain kinase 1 expression, dose response in A549 cells, real-time quantitative PCR. The format is cell-based, human. The note with it: 6, 25, 100 and 400 nM. The procedure: When cells reached 70% confluency, they were treated with oligonucleotide. […] Cells were harvested 16-24 hours after oligonucleotide treatment.
PCR reagents were obtained from Invitrogen Corporation, (Carlsbad, Calif.).
Probes and primers to human LIM domain kinase 1 were designed to hybridize to a human LIM domain kinase 1 sequence, using published sequence information (GenBank accession number D26309.1, incorporated herein as SEQ ID NO:4). For human LIM domain kinase 1 the PCR primers were: forward primer: […] (SEQ ID NO: 5) reverse primer: […] (SEQ ID NO: 6) and the PCR probe was: FAM-[…]-TAMRA (SEQ ID NO: 7) where FAM is the fluorescent dye and TAMRA is the quencher dye.
In accordance with the present invention, three of the oligonucleotides targeted to LIM domain kinase 1: ISIS 206212 ([…], SEQ ID NO: 67), ISIS 206219 ([…], SEQ ID NO: 74) and ISIS 206214 ([…], SEQ ID NO: 69) were investigated in a dose response experiment. The scrambled control oligonucleotides used in the dose response study were ISIS 129695 ([…], SEQ ID NO: 147), and ISIS 114845 ([…], SEQ ID NO: 148).
All cytidine residues are 5-methylcytidines.
In the dose-response experiment, with mRNA levels as the endpoint, A549 cells were treated with ISIS 206212, ISIS 206219, ISIS 206214 and control oligonucleotides at doses of 6, 25, 100 and 400 nM oligonucleotide. Data were obtained by real-time quantitative PCR as described in other examples herein and are averaged from two experiments with mRNA levels in the treatment groups, (including the scrambled control), being normalized to an untreated control group.
Regarding “ccggccagggcaccgcagct (e[5mC]*e[5mC]*eG*eG*e[5mC]*d[5mC]*dA*dG*dG*dG*d[5mC]*dA*d[5mC]*d[5mC]*dG*e[5mC]*eA*eG*e[5mC]*eT; antisense) [ISIS 206214]”, the “reduction of LIM domain kinase 1 mRNA levels (dose response)” value (from here on “reduction”) is “capable of reducing LIM domain kinase 1 mRNA levels in a dose-dependent manner”.

On to “actccccatttggttcctgg (eA*e[5mC]*eT*e[5mC]*e[5mC]*d[5mC]*d[5mC]*dA*dT*dT*dT*dG*dG*dT*dT*e[5mC]*e[5mC]*eT*eG*eG; antisense) [ISIS 206212]”, for which the “reduction” value is given as “capable of reducing LIM domain kinase 1 mRNA levels in a dose-dependent manner”.

“tgcactgagaaagcttcaca (eT*eG*e[5mC]*eA*e[5mC]*dT*dG*dA*dG*dA*dA*dA*dG*d[5mC]*dT*eT*e[5mC]*eA*e[5mC]*eA; antisense) [ISIS 206219]”: the “reduction” value is given as “capable of reducing LIM domain kinase 1 mRNA levels in a dose-dependent manner”.

The values are drawn from patent US20040014047A1, “Antisense modulation of LIM domain kinase 1 expression” (Isis Pharmaceuticals Inc., priority 2002, published 2004).
